Calls of active or inactive are those of the source. The rule behind the calls is not given here.
Experiments:
MV4-11 = experiment: Antiproliferative activity against human MV4-11 cells assessed as inhibition of cell proliferation at 20 uM incubated for 48 hrs by CCK8 assay relative to control; format: functional
RAW264.7 [1] = experiment: Cytotoxicity against mouse RAW264.7 cells assessed as reduction in cell viability incubated for 24 hrs by MTT assay; format: toxicity, cell-based; conditions: raw264.7, 24 h
RAW264.7 [2] = experiment: Antiinflammatory activity against mouse RAW264.7 cells assessed as inhibition of LPS-NO production at 20 uM by Griess reagent based assay relative to control; format: functional
RAW264.7 [3] = experiment: Antiinflammatory activity against mouse RAW264.7 cells assessed as inhibition of LPS-NO production by Griess reagent based assay; format: functional, cell-based
Mus musculus [4] = experiment: Antiinflammatory activity in LPS-induced BALB/c sepsis mouse model assessed as increase in GSH level in serum at 2.5 mg/kg preadministered with compound via gavage for 14 days followed by LPS stimulation and measured after 6 hrs; format: functional, organism-based; conditions: time 342.0 hrs
Mus musculus [5] = experiment: Antiinflammatory activity in LPS-induced BALB/c sepsis mouse model assessed as decrease in inflammatory cells in spleen at 2.5 mg/kg preadministered with compound via gavage for 14 days followed by LPS stimulation and measured after 6 hrs by H&E staining based analysis; format: functional, organism-based; conditions: time 342.0 hrs
Mus musculus [6] = experiment: Antiinflammatory activity in LPS-induced BALB/c sepsis mouse model assessed as decrease in serum BUN level at 2.5 mg/kg preadministered with compound via gavage for 14 days followed by LPS stimulation and measured after 6 hrs; format: functional, organism-based; conditions: time 342.0 hrs
Mus musculus [7] = experiment: Antiinflammatory activity in LPS-induced BALB/c sepsis mouse model assessed as decrease in serum creatinine level at 2.5 mg/kg preadministered with compound via gavage for 14 days followed by LPS stimulation and measured after 6 hrs; format: functional, organism-based; conditions: time 342.0 hrs
Mus musculus [8] = experiment: Antiinflammatory activity in LPS-induced BALB/c sepsis mouse model assessed as decrease in serum IL-6 level at 2.5 mg/kg preadministered with compound via gavage for 14 days followed by LPS stimulation and measured after 6 hrs by ELISA; format: functional, organism-based; conditions: time 342.0 hrs
Mus musculus [9] = experiment: Antiinflammatory activity in LPS-induced BALB/c sepsis mouse model assessed as decrease in MDA level in serum at 2.5 mg/kg preadministered with compound via gavage for 14 days followed by LPS stimulation and measured after 6 hrs; format: functional, organism-based; conditions: time 342.0 hrs
Mus musculus [10] = experiment: Antiinflammatory activity in LPS-induced BALB/c sepsis mouse model assessed as decrease in serum ALT level at 2.5 mg/kg preadministered with compound via gavage for 14 days followed by LPS stimulation and measured after 6 hrs; format: functional, organism-based; conditions: time 342.0 hrs
RAW264.7 [11] = experiment: Antiinflammatory activity in LPS-induced mouse RAW264.7 cells assessed as reduction in ROS level at 10 uM pretreated with compound followed by LPS stimulation and measured after 1 hrs by flow cytometric analysis; format: functional, cell-based
Mus musculus [12] = experiment: Antiinflammatory activity in LPS-induced BALB/c sepsis mouse model assessed as decrease in cell gap in spleen at 2.5 mg/kg preadministered with compound via gavage for 14 days followed by LPS stimulation and measured after 6 hrs by H&E staining based analysis; format: functional, organism-based; conditions: time 342.0 hrs
Mus musculus [13] = experiment: Antiinflammatory activity in LPS-induced BALB/c sepsis mouse model assessed as increase in SOD level in serum at 2.5 mg/kg preadministered with compound via gavage for 14 days followed by LPS stimulation and measured after 6 hrs; format: functional, organism-based; conditions: time 342.0 hrs
Mus musculus [14] = experiment: Antiinflammatory activity in LPS-induced BALB/c sepsis mouse model assessed as decrease in serum IL-1beta level at 2.5 mg/kg preadministered with compound via gavage for 14 days followed by LPS stimulation and measured after 6 hrs by ELISA; format: functional, organism-based; conditions: time 342.0 hrs
Mus musculus [15] = experiment: Antiinflammatory activity in LPS-induced BALB/c sepsis mouse model assessed as decrease in serum TNF-alpha level at 2.5 mg/kg preadministered with compound via gavage for 14 days followed by LPS stimulation and measured after 6 hrs by ELISA; format: functional, organism-based; conditions: time 342.0 hrs
Mus musculus [16] = experiment: Antiinflammatory activity in LPS-induced BALB/c sepsis mouse model assessed as decrease in infiltration of macrophages in spleen at 2.5 mg/kg preadministered with compound via gavage for 14 days followed by LPS stimulation and measured after 6 hrs by immunohistochemistry analysis; format: functional, organism-based; conditions: time 342.0 hrs
Mus musculus [17] = experiment: Antiinflammatory activity in LPS-induced BALB/c sepsis mouse model assessed as decrease in serum AST level at 2.5 mg/kg preadministered with compound via gavage for 14 days followed by LPS stimulation and measured after 6 hrs; format: functional, organism-based; conditions: time 342.0 hrs

Row | SMILES | inhibition at 20 µM (MV4-11) | other results
1 | Fc1cc(F)cc(-c2cc(C3CCNCC3)n[nH]2)c1 | 2.1% | 
2 | CCNc1cc(-c2cc(C3CCNCC3)n[nH]2)ccn1 | 15.4% | 
3 | Clc1cc(-c2cc(C3CCNCC3)n[nH]2)cc(Cl)n1 | 22.1% | 
4 | Fc1cccc(-c2cc(C3CCNCC3)n[nH]2)c1 | 0.1% | 
5 | c1cncc(-c2cc(C3CCNCC3)n[nH]2)c1 | 0.2% | 
6 | c1cc(-c2cc(C3CCNCC3)[nH]n2)ccn1 |  | Activity (RAW264.7 [1]): Non-Toxic
7 | Clc1cncc(Cl)c1-c1cc(C2CCNCC2)n[nH]1 | 19.6% | 
8 | Clc1cnccc1-c1cc(C2CCNCC2)n[nH]1 | 32.8% | 
9 | Nc1ncccc1-c1cc(C2CCNCC2)n[nH]1 | 15.2% | 
10 | O=[N+]([O-])c1ccc(-c2cc(C3CCNCC3)n[nH]2)cc1 | 4.6% | 
11 | Nc1ncc(-c2cc(C3CCNCC3)n[nH]2)cn1 | 37.9% | 
12 | Cc1cc(F)ccc1-c1cc(C2CCNCC2)n[nH]1 | 31.2% | 
13 | Brc1cnccc1-c1cc(C2CCNCC2)n[nH]1 | 6.1% | 
14 | Cc1cc(-c2cc(C3CCNCC3)n[nH]2)cc(C)n1 | 0.2% | 
15 | CN1CCN(c2ccc(-c3cc(C4CCNCC4)n[nH]3)cc2)CC1 | 8.5% | inhibition at 20 µM (RAW264.7 [2]): > 50%
16 | Fc1cc(-c2cc(C3CCNCC3)n[nH]2)cc(F)c1F | 3.4% | 
17 | c1cc(-c2cc(C3CCNCC3)n[nH]2)ncn1 | 0.2% | 
18 | Cn1ccc2c(-c3cc(C4CCNCC4)n[nH]3)ccnc21 | 23.8% | 
19 | N#Cc1ccc(-c2cc(C3CCNCC3)n[nH]2)cc1 | 6% | inhibition at 20 µM (RAW264.7 [2]): > 50%
20 | c1ncc(-c2cc(C3CCNCC3)n[nH]2)cn1 | 0.1% | 
21 | c1cc(-c2cc(C3CCNCC3)n[nH]2)cs1 | 0.1% | 

Row | SMILES | inhibition at 20 µM (MV4-11) | other results
22 | CN(C)c1cc(-c2cc(C3CCNCC3)n[nH]2)ccn1 | 56.9% | 
23 | Fc1ccc(-c2cc(C3CCNCC3)n[nH]2)c(F)c1 | 9.8% | 
24 | Brc1cc(-c2cc(C3CCNCC3)n[nH]2)ccn1 | 20.7% | 
25 | Fc1cc(-c2cc(C3CCNCC3)n[nH]2)ccn1 | 0.1% | 
26 | c1ncc(-c2cc(C3CCNCC3)n[nH]2)s1 | 11.1% | 
27 | Fc1cnccc1-c1cc(C2CCNCC2)n[nH]1 | 0.1% | Activity (RAW264.7 [3]): inactive; Activity (RAW264.7 [1]): Non-Toxic
28 | FC(F)(F)c1ccc(-c2cc(C3CCNCC3)n[nH]2)cc1 | 36% | 
29 | Clc1cc(-c2cc(C3CCNCC3)n[nH]2)ccn1 | 35.6% | 
30 | CNc1cc(-c2cc(C3CCNCC3)n[nH]2)ccn1 | 30.2% | 
31 | C[C@@H]1C[C@H]2[C@@H]3CCC4=CC(=O)C=C[C@]4(C)[C@@]3(F)[C@@H](O)C[C@]2(C)[C@@]1(O)C(=O)CO |  | Activity (Mus musculus [4]): Active; Activity (Mus musculus [5]): Active; Activity (Mus musculus [6]): Active; Activity (Mus musculus [7]): Active; Activity (Mus musculus [8]): Active; Activity (Mus musculus [9]): Active; Activity (Mus musculus [10]): Active; Activity (RAW264.7 [11]): Active; Activity (Mus musculus [12]): Active; Activity (Mus musculus [13]): Active; Activity (Mus musculus [14]): Active; Activity (Mus musculus [15]): Active; Activity (Mus musculus [16]): Active; Activity (Mus musculus [17]): Active
32 | FC(F)(F)c1cc(-c2cc(C3CCNCC3)n[nH]2)ccn1 | 52.5% | 
33 | Cc1cc(-c2cc(C3CCNCC3)n[nH]2)ccn1 | 0.1% | 
34 | Fc1ccc(-c2cc(C3CCNCC3)n[nH]2)cc1 | 0.1% | 
35 | COc1cc(-c2cc(C3CCNCC3)n[nH]2)ccn1 | 19.3% | 
36 | Fc1ccc(-c2cc(C3CCNCC3)n[nH]2)cc1F | 6.4% | 
37 | Nc1cc(-c2cc(C3CCNCC3)n[nH]2)ccn1 | 33.3% | Activity (RAW264.7 [3]): inactive; Activity (RAW264.7 [1]): Non-Toxic
38 | c1cnc(-c2cc(C3CCNCC3)n[nH]2)cn1 | 0.1% | 
39 | c1cc(-c2cc(C3CCNCC3)n[nH]2)ccn1 | 51.2% | Activity (RAW264.7 [3]): inactive
40 | Nc1ccc(-c2cc(C3CCNCC3)n[nH]2)cn1 | 35% | 
41 | CN1CCC(c2cc(-c3ccncc3)[nH]n2)CC1 | 3.39% | 
42 | c1ccc(-c2cc(C3CCNCC3)n[nH]2)cc1 | 0.3% | 

— ChEMBL document CHEMBL5537205, “Discovery of D25, a Potent and Selective MNK Inhibitor for Sepsis-Associated Acute Spleen Injury” (J Med Chem, 2024)
